# Measurements from patent US7981903B2, “2-[2-{phenylamino}-1H-pyrrolo[2,3-D]pyrimidin-4-yl)amino] benzamide derivatives as IGF-1R inhibitors for the treatment of cancer” (GlaxoSmithKline LLC, priority 2007, dated 2011).
# Like-named read-outs stand apart in the source and are kept apart here.
# Key:
# ALCL cells [1] = settings: cited from earlier work
# ALCL cells [2] = settings: cited from earlier work; remark: listed apart in the source
# ALK [3] = molecular target: T1, ALK (Homo sapiens, UniProt Q9UM73); set-up: host or cells: ALCL cells; the other entry of the earlier key: NPM1 (P06748, Nucleophosmin); settings: cited from earlier work
# Target sequence in this assay (Q9UM73 with tags, fused parts or gaps): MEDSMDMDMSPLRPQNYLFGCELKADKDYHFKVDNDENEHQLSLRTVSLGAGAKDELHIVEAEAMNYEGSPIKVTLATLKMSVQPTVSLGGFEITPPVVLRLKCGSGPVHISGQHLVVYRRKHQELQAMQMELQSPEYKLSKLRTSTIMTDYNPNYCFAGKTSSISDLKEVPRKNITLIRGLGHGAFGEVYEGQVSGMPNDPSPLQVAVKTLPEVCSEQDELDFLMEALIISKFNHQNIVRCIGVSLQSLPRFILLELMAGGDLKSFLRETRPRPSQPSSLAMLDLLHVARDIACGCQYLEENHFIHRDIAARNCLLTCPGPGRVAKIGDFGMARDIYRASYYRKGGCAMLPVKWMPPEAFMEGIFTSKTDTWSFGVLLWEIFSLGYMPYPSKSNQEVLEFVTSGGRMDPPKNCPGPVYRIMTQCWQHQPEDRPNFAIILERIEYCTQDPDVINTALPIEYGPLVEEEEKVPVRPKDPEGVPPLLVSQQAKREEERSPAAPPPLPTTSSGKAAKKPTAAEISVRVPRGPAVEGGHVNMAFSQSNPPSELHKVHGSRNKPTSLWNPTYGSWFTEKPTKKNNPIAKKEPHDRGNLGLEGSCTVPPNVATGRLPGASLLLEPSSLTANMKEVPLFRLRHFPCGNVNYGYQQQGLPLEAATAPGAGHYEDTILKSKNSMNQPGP
# human IR (hIR) = molecular target: T2, human IR (hIR) (Homo sapiens, UniProt P06213); experiment: TR-FRET kinase assay of purified hIR; assay type: biochemical; settings: activated hIR 0.5 nM, 10 μM ATP, values given as pIC50 category
# T2 construct: containing amino acid residues 979-1382 of human IR; made in house; host or cells: Sf9 cells (baculovirus), same process as hIGF1R
# ALK [4] = molecular target: T1, ALK; experiment: ALK enzyme assay (HTRF); assay type: biochemical; settings: 0.25 nM ALK, 15.0 μM ATP, values given as pIC50 category
# In short: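 Final compound range 0.00017 to 10 μM (twelve 1:3 dilutions). Kinase reaction with ATP and biotinylated synthetic peptide runs 120 min at 20° C, stopped with EDTA; phosphotyrosine detected by HTRF after 60 min. Inhibition referenced to DMSO (1%) and EDTA (0.1 M) controls, curve-fitted.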
# Target sequence in this assay (Q9UM73 19-1620): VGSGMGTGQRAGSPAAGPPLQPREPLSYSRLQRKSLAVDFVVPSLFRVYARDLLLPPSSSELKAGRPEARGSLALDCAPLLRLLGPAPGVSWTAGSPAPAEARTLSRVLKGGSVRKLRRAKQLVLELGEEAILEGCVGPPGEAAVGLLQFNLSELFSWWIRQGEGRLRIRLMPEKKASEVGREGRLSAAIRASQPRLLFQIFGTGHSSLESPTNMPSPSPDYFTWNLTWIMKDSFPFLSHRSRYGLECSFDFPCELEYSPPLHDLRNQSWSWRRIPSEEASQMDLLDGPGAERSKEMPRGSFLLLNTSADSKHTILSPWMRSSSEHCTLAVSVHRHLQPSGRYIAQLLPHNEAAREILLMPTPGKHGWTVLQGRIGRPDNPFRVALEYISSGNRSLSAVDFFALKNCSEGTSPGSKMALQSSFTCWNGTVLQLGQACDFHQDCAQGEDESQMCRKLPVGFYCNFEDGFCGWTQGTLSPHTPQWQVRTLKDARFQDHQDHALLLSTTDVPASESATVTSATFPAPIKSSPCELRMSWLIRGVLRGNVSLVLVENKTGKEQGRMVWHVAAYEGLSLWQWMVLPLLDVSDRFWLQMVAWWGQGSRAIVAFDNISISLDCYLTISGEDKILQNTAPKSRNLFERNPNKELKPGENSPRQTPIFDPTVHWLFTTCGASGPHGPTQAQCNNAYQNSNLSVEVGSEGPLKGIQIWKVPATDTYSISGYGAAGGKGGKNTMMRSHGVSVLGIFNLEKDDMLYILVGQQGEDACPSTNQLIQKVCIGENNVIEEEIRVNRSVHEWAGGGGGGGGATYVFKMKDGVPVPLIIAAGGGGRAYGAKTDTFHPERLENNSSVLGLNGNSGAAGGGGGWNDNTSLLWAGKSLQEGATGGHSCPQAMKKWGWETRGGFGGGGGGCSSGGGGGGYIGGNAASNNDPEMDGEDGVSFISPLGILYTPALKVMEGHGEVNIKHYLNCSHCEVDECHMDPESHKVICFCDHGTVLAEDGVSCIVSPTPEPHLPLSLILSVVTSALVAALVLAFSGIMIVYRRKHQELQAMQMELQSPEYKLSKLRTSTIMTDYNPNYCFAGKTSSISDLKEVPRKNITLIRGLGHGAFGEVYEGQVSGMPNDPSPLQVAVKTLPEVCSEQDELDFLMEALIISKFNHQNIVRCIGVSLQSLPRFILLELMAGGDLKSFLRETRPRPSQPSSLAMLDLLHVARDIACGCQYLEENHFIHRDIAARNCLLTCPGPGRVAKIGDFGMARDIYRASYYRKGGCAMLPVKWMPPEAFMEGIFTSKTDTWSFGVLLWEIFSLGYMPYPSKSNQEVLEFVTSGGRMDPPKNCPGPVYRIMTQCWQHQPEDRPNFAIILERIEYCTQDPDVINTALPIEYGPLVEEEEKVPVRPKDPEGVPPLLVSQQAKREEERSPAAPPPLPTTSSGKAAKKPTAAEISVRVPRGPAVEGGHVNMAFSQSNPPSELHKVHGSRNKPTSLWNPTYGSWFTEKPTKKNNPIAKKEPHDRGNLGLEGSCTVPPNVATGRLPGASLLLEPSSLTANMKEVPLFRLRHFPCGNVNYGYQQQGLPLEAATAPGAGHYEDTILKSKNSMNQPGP
# Colo205 = experiment: Inhibition of cell proliferation (CellTiter-Glo or InCell analyzer), Colo205; assay type: cell-based; settings: Homo sapiens, COLO 205, 72 h / 3 days, values given as IC50 category
# In short: In one
# NCI-H929 = experiment: Inhibition of cell proliferation (CellTiter-Glo or InCell analyzer), NCI-H929; assay type: cell-based; settings: Homo sapiens, 72 h / 3 days, values given as IC50 category
# Description: Cell proliferation was measured by either CellTiter-Glo (measures cellular ATP level as a surrogate for total cell number) or by InCell analyzer (counts number of nuclei as a measure of cell number).
# For CellTiter-Glo assay, exponentially growing cell lines of different tumor origins, cultured in appropriate media containing 10% fetal bovine serum at 37° C. in a 5% CO2 incubator, were plated at low density (less than 2000cells/well) in 96-well plates. Twenty four hours post-plating, cells were treated with different concentrations of test compounds ranging from 30 uM to 1.5 nM. Several wells were left untreated as a control. Seventy two hours post-treatment, cell numbers were determined using 50-100 ul per well of CellTiter-Glo (Promega #G7573). Plates were incubated at 37° C. for 30 minutes and the chemiluminescent signal was read on the Victor V or Envison 2100 reader.
# For InCell Analyser assay, various cell lines of different tumor origins were grown to 70-80% confluency in appropriate culture media containing 10% fetal bovine serum at 37° C. in a 5% CO2 incubator. On day −1, cells were seeded at 2 densities in 384-well plates and incubated at 37° C. overnight. Stock compound plates were prepared in advance which contained dimethyl sulfoxide (DMSO) alone and a 9-point half-log decreasing dose range of the compound in DMSO. The compound plates were stored at −80° C. and each plate was only thawed once and used. On day 0, the main assay plates received compound or DMSO via a sonic delivery system (ECHO). The highest final concentration of compound of the dose range in the culture plates was 10 uM. These plates were cultured at 37° C. for 3 days. […] On day 3, the compound treated plates were stained and fixed to measure proliferation, apoptosis, and mitotic index using an InCelL1000 analyser. A nuclear stain was used to identify cells in the wells. By counting the number of nuclei, the proliferation index of compound treated groups were calculated as a percentage relative to the DMSO control, which was set to 100%. The IC50 values were calculated using model 205 in ExcelFit.
# IC50 (nM) values for compounds of select examples were categorized by relative inhibition of cell proliferation.
# [5] = molecular target: T3, NIH-3T3 cells overexpressing human IGF-1R (Homo sapiens, UniProt P08069); experiment: IGF-1R cellular autophosphorylation (DELFIA); assay type: cell-based
# T3 construct: expressed in transfected cells; host or cells: NIH-3T3 (mouse fibroblasts)
# In short: (§1)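 Receptor autophosphorylation measured by DELFIA, capturing IGF-1R or IRβ and detecting with europium anti-pTyr, reported as percent of IGF-1- or insulin-stimulated signal. Compounds (30 uM to 1.5 nM) added 2 h before ligand, then 15 min stimulation (IGF-1 30 ng/ml or insulin 3 ug/ml).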
# [6] = molecular target: T4, NIH-3T3 cells overexpressing human IR (Homo sapiens, UniProt P06213); experiment: IR cellular autophosphorylation (DELFIA); assay type: cell-based; settings: 2 h compound, insulin 3 ug/ml for 15 minutes, IC50 category
# T4 construct: expressed in transfected cells; host or cells: NIH-3T3 (mouse fibroblasts)
# In short: as §1
# T4 sequence (P06213 28-1382): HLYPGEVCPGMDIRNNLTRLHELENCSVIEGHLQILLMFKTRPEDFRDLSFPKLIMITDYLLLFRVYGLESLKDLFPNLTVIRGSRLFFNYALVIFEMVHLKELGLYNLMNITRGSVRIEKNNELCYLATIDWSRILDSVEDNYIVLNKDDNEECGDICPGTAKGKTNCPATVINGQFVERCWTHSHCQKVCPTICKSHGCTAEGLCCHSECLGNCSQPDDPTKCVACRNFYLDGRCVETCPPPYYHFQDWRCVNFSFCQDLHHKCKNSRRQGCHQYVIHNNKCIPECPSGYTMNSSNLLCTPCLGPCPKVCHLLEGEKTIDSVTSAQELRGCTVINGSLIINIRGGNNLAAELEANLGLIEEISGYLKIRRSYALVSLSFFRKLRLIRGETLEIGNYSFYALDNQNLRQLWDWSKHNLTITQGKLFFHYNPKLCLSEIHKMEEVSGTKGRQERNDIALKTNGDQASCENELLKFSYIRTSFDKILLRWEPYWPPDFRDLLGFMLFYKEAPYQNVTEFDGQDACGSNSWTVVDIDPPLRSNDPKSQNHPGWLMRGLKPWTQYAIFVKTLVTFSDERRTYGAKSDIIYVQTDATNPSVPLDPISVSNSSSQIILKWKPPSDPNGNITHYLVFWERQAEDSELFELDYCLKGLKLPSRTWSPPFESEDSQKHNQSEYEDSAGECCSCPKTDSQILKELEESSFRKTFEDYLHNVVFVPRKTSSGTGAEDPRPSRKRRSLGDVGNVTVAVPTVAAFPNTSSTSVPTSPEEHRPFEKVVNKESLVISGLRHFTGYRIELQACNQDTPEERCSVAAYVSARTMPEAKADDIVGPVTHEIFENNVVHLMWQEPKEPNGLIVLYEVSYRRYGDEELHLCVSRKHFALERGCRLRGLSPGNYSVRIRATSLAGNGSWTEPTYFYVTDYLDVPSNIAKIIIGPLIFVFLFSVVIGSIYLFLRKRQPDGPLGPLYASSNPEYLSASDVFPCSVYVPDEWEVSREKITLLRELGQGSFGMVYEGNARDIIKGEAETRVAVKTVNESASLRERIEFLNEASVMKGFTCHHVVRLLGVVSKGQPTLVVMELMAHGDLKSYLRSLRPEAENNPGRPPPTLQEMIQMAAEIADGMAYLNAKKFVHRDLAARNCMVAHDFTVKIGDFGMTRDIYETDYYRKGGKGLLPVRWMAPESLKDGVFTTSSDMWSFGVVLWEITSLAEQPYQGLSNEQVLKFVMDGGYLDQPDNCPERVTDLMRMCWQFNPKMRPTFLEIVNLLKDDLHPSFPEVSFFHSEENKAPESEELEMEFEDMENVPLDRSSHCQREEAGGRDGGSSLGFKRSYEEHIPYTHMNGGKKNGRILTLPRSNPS
# T3 sequence (P08069 31-1367): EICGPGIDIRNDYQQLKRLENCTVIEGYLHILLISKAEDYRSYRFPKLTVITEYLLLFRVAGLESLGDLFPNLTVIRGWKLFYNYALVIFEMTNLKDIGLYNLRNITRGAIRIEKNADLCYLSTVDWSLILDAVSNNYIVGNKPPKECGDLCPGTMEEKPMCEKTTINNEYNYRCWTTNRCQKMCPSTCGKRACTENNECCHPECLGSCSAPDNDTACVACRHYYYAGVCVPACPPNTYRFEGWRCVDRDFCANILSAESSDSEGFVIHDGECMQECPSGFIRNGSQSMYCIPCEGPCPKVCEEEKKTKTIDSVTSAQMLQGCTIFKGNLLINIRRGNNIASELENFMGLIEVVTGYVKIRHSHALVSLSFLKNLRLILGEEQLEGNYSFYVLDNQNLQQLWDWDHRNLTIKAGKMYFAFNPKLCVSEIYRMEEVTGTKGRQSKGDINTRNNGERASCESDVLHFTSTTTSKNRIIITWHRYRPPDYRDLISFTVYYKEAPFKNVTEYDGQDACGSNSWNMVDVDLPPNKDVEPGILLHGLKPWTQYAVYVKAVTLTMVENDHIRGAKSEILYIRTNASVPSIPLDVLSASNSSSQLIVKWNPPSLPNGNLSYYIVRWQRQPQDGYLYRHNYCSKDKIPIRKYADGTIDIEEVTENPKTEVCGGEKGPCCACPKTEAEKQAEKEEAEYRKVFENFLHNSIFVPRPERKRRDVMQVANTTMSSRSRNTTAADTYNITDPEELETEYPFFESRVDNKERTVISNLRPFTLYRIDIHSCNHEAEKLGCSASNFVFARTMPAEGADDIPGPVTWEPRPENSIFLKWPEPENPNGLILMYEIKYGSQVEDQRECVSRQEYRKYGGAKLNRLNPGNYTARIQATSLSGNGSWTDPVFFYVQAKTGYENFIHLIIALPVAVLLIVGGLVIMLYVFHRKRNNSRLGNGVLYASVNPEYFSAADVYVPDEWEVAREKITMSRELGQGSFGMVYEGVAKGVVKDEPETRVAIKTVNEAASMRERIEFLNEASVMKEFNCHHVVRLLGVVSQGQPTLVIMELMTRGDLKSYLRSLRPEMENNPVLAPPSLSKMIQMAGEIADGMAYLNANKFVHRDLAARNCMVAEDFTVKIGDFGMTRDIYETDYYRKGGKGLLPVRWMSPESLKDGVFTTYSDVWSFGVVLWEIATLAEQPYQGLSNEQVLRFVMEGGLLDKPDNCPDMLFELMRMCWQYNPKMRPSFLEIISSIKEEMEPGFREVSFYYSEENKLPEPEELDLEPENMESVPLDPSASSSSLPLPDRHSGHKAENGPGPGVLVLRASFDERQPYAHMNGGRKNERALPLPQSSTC
compound,measurement,setting,value
C[C@@H](Oc1cc(-c2cnn(C3CCNCC3)c2)cnc1N)c1c(Cl)ccc(F)c1Cl [PF2341066],inhibition of the growth of ALCL cells,ALCL cells [1]; experimental systems in vitro,inhibit the growth of ALCL cells
same,inhibition of the growth of ALCL cells,ALCL cells [2]; experimental systems in vivo,inhibit the growth of ALCL cells
"5-chloro-2,4-diaminophenylpyrimidine [NVP-TAE68]",activity against ALCL cells,ALCL cells [1]; in vitro,active against ALCL cells
same,activity in tumor xenograft models,ALCL cells [2]; tumor xenograft models,active
same,consequence of the inhibition of ALK autophosphorylation in the cells,ALK [3],cell cycle arrest and apoptosis
same,inhibition of ALK autophosphorylation,ALK [3],inhibited ALK autophosphorylation
"COc1cc(N2CCN(C(C)C)CC2)ccc1Nc1nc(Nc2ccc(F)cc2C(N)=O)c2cc[nH]c2n1 [Example 60, 5-fluoro-2-[(2-{[4-[4-(1-methylethyl)-1-piperazinyl]-2-(methyloxy)phenyl]amino}-1H-pyrrolo[2,3-d]pyrimidin-4-yl)amino]benzamide]",IC50,human IR (hIR),0.251 to 1 nM
same,IC50,ALK [4],0.251 to 1 nM
same,IC50,Colo205,< 250 nM
same,IC50,NCI-H929,< 250 nM
same,IC50,[5],< 100 nM
same,IC50,[6],100 to 500 nM
